Measurements taken from ChEMBL document CHEMBL1127129, “N,N-disubstituted acetamidines as high affinity sigma receptor ligands” (Bioorg Med Chem Lett, 1993).

Target: Glutamate NMDA receptor
Experiment: The compound was evaluated for binding affinity against NMDA receptor ion-channel site using [3H]-MK 801 radioligand in rat brain membranes
Format: cell membranes

Row | SMILES | IC50
1 | C/C(=N\c1ccc(Br)cc1C)Nc1ccc(Br)cc1C | 9.11 µM
2 | C/C(=N\C1CCCCC1)NC12CC3CC(CC(C3)C1)C2 | 10 µM
3 | C/C(=N\C12CC3CC(CC(C3)C1)C2)NC12CC3CC(CC(C3)C1)C2 | 10 µM
4 | C/C(=N\C1CCCCC1)Nc1ccccc1C | 10 µM
5 | C/C(=N\c1ccccc1C)Nc1ccccc1C | 10 µM

Other lines, results leading:

Row | IC50 | SMILES
6 | 10 µM | C/C(=N\C12CC3CC(CC(C3)C1)C2)Nc1ccccc1C
7 | 80 µM | C/C(=N\C1CC2CCC1C2)Nc1ccccc1C (configuration not stated)
